Among the data in US11203613B2, “Peptidomimetic proteasome inhibitors” (CORNELL UNIVERSITY, priority 2017, dated 2021) are IC50 values, retold here.

The test concerns the target Human Constitutive (Hu C-20S) β5 Active Subunit (Homo sapiens, UniProt P28074). Nature of the test: IC50 determination, human constitutive 20S proteasome β5c (suc-LLVY-AMC hydrolysis). The format is biochemical. Conditions: Table 3; IC50 against human constitutive β5 active subunit; read-out: Hu-C20S β5.
In the case of `C[C@H](NC(=O)[C@H](CC(=O)N1CCCC[C@@H]1C)NC(=O)[C@H]1C[C@@H]1c1ccccc1)c1nc2c(F)cccc2[nH]1` [CEN-55, (1S,2S)—N—((S)-1-(((S)-1-(4-Fluoro-1H-benzo[d]Imidazol-2-yl)ethyl)amino)-4-((S)-2-methylpiperidin-1-yl)-1,4-dioxobutan-2-yl)-2-phenylcyclopropane-1-carboxamide], the IC50 came out at 12.3 µM.

`C[C@H](NC(=O)[C@H](CC(=O)N1CCCC[C@@H]1C)NC(=O)N(C)Cc1ccccc1)c1nc2c(F)cccc2[nH]1` [CEN-56, (S)-2-(3-Benzyl-3-methylureido)-N—((S)-1-(4-fluoro-1H-benzo[d]imidazol-2-yl)ethyl)-4-((S)-2-methylpiperidin-1-yl)-4-oxobutanamide]: the IC50 was found to be 17.2 µM.

As to `C[C@H](NC(=O)[C@H](CC(=O)N1CCCC[C@@H]1C)NC(=O)C1CC2(C1)CC(F)(F)C2)c1nc2c(F)cccc2[nH]1` [CEN-57, 6,6-Difluoro-N—((S)-1-(((S)-1-(4-fluoro-1H-benzo[d]imidazol-2-yl)ethyl)amino)-4-((S)-2-methylpiperidin-1-yl)-1,4-dioxobutan-2-yl)spiro[3.3]heptane-2-carboxamide], the IC50 was 28 µM.

For the compound `CC(C)CCS(=O)(=O)N[C@@H](CC(=O)N1CCC[C@@H]1c1ccccc1)C(=O)NC(C)c1nc2ccccc2[nH]1` (stereo partly drawn) [CEN-58, (2S)—N-(1-(1H-Benzo[d]imidazol-2-yl)ethyl)-2-((3-methylbutyl)sulfonamido)-4-oxo-4-((R)-2-phenylpyrrolidin-1-yl)butanamide], the IC50 stood at 13.9 µM.

Turning to `CC(C)CCS(=O)(=O)N[C@@H](CC(=O)N1CCC[C@@H]1c1ccccc1)C(=O)N[C@@H](C)c1nc2ccccc2[nH]1` [CEN-59, (S)—N—((S)-1-(1H-Benzo[d]imidazol-2-yl)ethyl)-2-((3-methylbutyl)sulfonamido)-4-oxo-4-((R)-2-phenylpyrrolidin-1-yl)butanamide], the IC50 came out at 10 µM.

In the case of `CC(C)CCS(=O)(=O)N[C@@H](CC(=O)N1CCC[C@@H]1c1ccccc1)C(=O)N[C@H](C)c1nc2ccccc2[nH]1` [CEN-60, (S)—N—((R)-1-(1H-Benzo[d]imidazol-2-yl)ethyl)-2-((3-methylbutyl)sulfonamido)-4-oxo-4-((R)-2-phenylpyrrolidin-1-yl)butanamide], the IC50 worked out at 10.7 µM.

As for `C[C@H](NC(=O)[C@H](CC(=O)N1CCCC1C1CC1)NC(=O)C1CC2(C1)CC(F)(F)C2)c1nc2cccc(F)c2[nH]1` (stereo partly drawn) [CEN-61, N-((2S)-4-(2-Cyclopropylpyrrolidin-1-yl)-1-(((S)-1-(7-fluoro-1H-benzo[d]imidazol-2-yl)ethyl)amino)-1,4-dioxobutan-2-yl)-6,6-difluorospiro[3.3]heptane-2-carboxamide], the IC50 was 8.8 µM.

Consider `C[C@H](NC(=O)[C@H](CC(=O)N1CCC[C@H]1c1ccccc1)NC(=O)C1CC2(COC2)C1)c1nc2cccc(F)c2[nH]1` [CEN-63, N—((S)-1-(((S)-1-(7-Fluoro-1H-benzo[d]imidazol-2-yl)ethyl)amino)-1,4-dioxo-4-((S)-2-phenylpyrrolidin-1-yl)butan-2-yl)-2-oxaspiro[3.3]heptane-6-carboxamide], for which the IC50 was determined as 6.8 µM.

On to `O=C(N[C@@H](CC(=O)N1CCCC1C1CC1)C(=O)NC1(c2nc3cccc(F)c3[nH]2)CC1)C1CC2(C1)CC(F)(F)C2` (stereo partly drawn) [CEN-64, N-((2S)-4-(2-Cyclopropylpyrrolidin-1-yl)-1-((1-(7-fluoro-1H-benzo[d]imidazol-2-yl)cyclopropyl)amino)-1,4-dioxobutan-2-yl)-6,6-difluorospiro[3.3]heptane-2-carboxamide], for which the IC50 came out at 2.4 µM.

Turning to `C[C@H](NC(=O)[C@H](CC(=O)N1CCC[C@@H]1c1ccccc1)NC(=O)CCCC(F)(F)F)c1nc2ccccc2n1C` [CEN-65, 5,5,5-Trifluoro-N—((S)-1-(((S)-1-(1-methyl-1H-benzo[d]imidazol-2-yl)ethyl)amino)-1,4-dioxo-4-((R)-2-phenylpyrrolidin-1-yl)butan-2-yl)pentanamide], the IC50 was greater than 100 µM.

Consider `C[C@H](NC(=O)[C@H](CC(=O)N1CCC[C@@H]1c1ccccc1)NC(=O)CCCC(F)(F)F)c1nc2ccccc2o1` [CEN-66, N—((S)-1-(((S)-1-(Benzo[d]oxazol-2-yl)ethyl)amino)-1,4-dioxo-4-((R)-2-phenylpyrrolidin-1-yl)butan-2-yl)-5,5,5-trifluoropentanamide], for which the IC50 was greater than 100 µM.

Turning to `C[C@H](NC(=O)[C@H](CC(=O)N1CCC[C@@H]1c1ccccc1)NC(=O)CCCC(F)(F)F)c1nc2ccccc2s1` [CEN-67, N—((S)-1-(((S)-1-(Benzo[d]thiazol-2-yl)ethyl)amino)-1,4-dioxo-4-((R)-2-phenylpyrrolidin-1-yl)butan-2-yl)-5,5,5-trifluoropentanamide], the IC50 is greater than 100 µM.

For the compound `C[C@H](NC(=O)[C@H](CC(=O)N1CCC[C@@H]1c1ccccc1)NC(=O)C1CC2(C1)CC(F)(F)C2)c1nc2ccccc2o1` [CEN-68, N—((S)-1-(((S)-1-(Benzo[d]oxazol-2-yl)ethyl)amino)-1,4-dioxo-4-((R)-2-phenylpyrrolidin-1-yl)butan-2-yl)-6,6-difluorospiro[3.3]heptane-2-carboxamide], the IC50 was greater than 100 µM.

On to `Cc1ccc(S(=O)(=O)N[C@@H](CC(=O)NC(C)(C)C)C(=O)NC2(c3nc4c(F)cccc4[nH]3)CC2)cc1` [CEN-69, (S)—N^4-(tert-Butyl)-N^1-(1-(4-fluoro-1H-benzo[d]Imidazol-2-yl)cyclopropyl)-2-((4-methylphenyl)sulfonamido)succinamide], for which the IC50 was greater than 100 µM.

In the case of `Cc1ccc(S(=O)(=O)N[C@@H](CCC(=O)NC(C)(C)C)C(=O)NC2(c3nc4c(F)cccc4[nH]3)CC2)cc1` [CEN-70, (S)—N^5-(tert-Butyl)-N^1-(1-(4-fluoro-1H-benzo[d]Imidazol-2-yl)cyclopropyl)-2-((4-methylphenyl)sulfonamido)pentanediamide], the IC50 was greater than 100 µM.

As to `Cc1ccc(S(=O)(=O)N[C@H](C(=O)N[C@@H](C)c2nc3cccc(F)c3[nH]2)[C@@H](C)O)cc1` [CEN-71, (2S,3R)—N—((S)-1-(7-Fluoro-1H-benzo[d]imidazol-2-yl)ethyl)-3-hydroxy-2-((4-methylphenyl)sulfonamido)butanamide], the IC50 is greater than 100 µM.

In the case of `C[C@H](NC(=O)[C@@H](NC(=O)CCc1ccc(F)cc1)[C@@H](C)O)c1nc2c(F)cccc2[nH]1` [CEN-72, (2S,3R)—N—((S)-1-(4-Fluoro-1H-benzo[d]imidazol-2-yl)ethyl)-2-(3-(4-fluorophenyl)propanamido)-3-hydroxybutanamide], the IC50 was greater than 100 µM.

As to `CC(C)(C)NC(=O)CC[C@H](NC(=O)CCc1ccc(F)cc1)C(=O)NC1(c2nc3cccc(F)c3[nH]2)CC1` [CEN-73, (S)—N5-(tert-Butyl)-N1-(1-(7-fluoro-1H-benzo[d]Imidazol-2-yl)cyclopropyl)-2-(3-(4-fluorophenyl)propanamido)pentanediamide], the IC50 was greater than 100 µM.

`C[C@H](NC(=O)[C@@H](N)CC(=O)N1CCC[C@@H]1c1ccccc1)c1ncc(-c2ccccc2F)[nH]1` [CEN-74, (S)-2-Amino-N—((S)-1-(5-(2-fluorophenyl)-1H-imidazol-2-yl)ethyl)-4-oxo-4-((R)-2-phenylpyrrolidin-1-yl)butanamide]: the IC50 worked out at 94 µM.

As to `Cc1cc(C(=O)N[C@@H](CC(=O)N2CCC[C@@H]2c2ccccc2)C(=O)N[C@@H](C)c2ncc(-c3ccccc3F)[nH]2)no1` [CEN-75, N—((S)-1-(((S)-1-(5-(2-Fluorophenyl)-1H-imidazol-2-yl)ethyl)amino)-1,4-dioxo-4-((R)-2-phenylpyrrolidin-1-yl)butan-2-yl)-5-methylisoxazole-3-carboxamide], the IC50 was greater than 100 µM.

For `C[C@H](NC(=O)[C@@H](N)CC(=O)N1CCCC[C@@H]1C)c1ncc(-c2ccc(F)cc2F)[nH]1` [CEN-76, (S)-2-Amino-N—((S)-1-(5-(2,4-difluorophenyl)-1H-imidazol-2-yl)ethyl)-4-((S)-2-methylpiperidin-1-yl)-4-oxobutanamide], the IC50 was 14.2 µM.

On to `CC(C)CCC(=O)N[C@@H](CC(=O)N1CCCC1)C(=O)N[C@@H](C)c1ncc(-c2ccc(F)cc2F)[nH]1` [CEN-77, N—((S)-1-(((S)-1-(5-(2,4-Difluorophenyl)-1H-imidazol-2-yl)ethyl)amino)-1,4-dioxo-4-(pyrrolidin-1-yl)butan-2-yl)-4-methylpentanamide], for which the IC50 was determined as 10.4 µM.

`CC(C)CCC(=O)N[C@@H](CC(=O)N(C)C(C)C)C(=O)N[C@@H](C)c1ncc(-c2ccc(F)cc2F)[nH]1` [CEN-78, (S)—N1-((S)-1-(5-(2,4-Difluorophenyl)-1H-imidazol-2-yl)ethyl)-N4-isopropyl-N4-methyl-2-(4-methylpentanamido)succinamide]: the IC50 was 14.9 µM.

As for `CCN(CC)C(=O)C[C@H](NC(=O)CCC(C)C)C(=O)N[C@@H](C)c1ncc(-c2ccc(F)cc2F)[nH]1` [CEN-79, (S)—N1-((S)-1-(5-(2,4-Difluorophenyl)-1H-imidazol-2-yl)ethyl)-N4,N4-diethyl-2-(4-methylpentanamido)succinamide], the IC50 stood at 7.3 µM.

Turning to `Cc1cc(C(=O)N[C@@H](CC(=O)N2CCCC2)C(=O)N[C@@H](C)c2ncc(-c3ccc(F)cc3F)[nH]2)no1` [CEN-80, N—((S)-1-(((S)-1-(5-(2,4-Difluorophenyl)-1H-imidazol-2-yl)ethyl)amino)-1,4-dioxo-4-(pyrrolidin-1-yl)butan-2-yl)-5-methylisoxazole-3-carboxamide], the IC50 is 16.7 µM.

As to `C[C@H](NC(=O)[C@H](CC(=O)N1CCCC[C@@H]1C)NC(=O)CC1CC1)c1ncc(-c2ccc(F)cc2F)[nH]1` [CEN-81, (S)-2-(2-Cyclopropylacetamido)-N—((S)-1-(5-(2,4-difluorophenyl)-1H-imidazol-2-yl)ethyl)-4-((S)-2-methylpiperidin-1-yl)-4-oxobutanamide], the IC50 came to 10.5 µM.

For the compound `C[C@H](NC(=O)[C@H](CC(=O)N1CCCC[C@@H]1C)NC(=O)C1CCC1)c1ncc(-c2ccc(F)cc2F)[nH]1` [CEN-82, N—((S)-1-(((S)-1-(5-(2,4-Difluorophenyl)-1H-imidazol-2-yl)ethyl)amino)-4-((S)-2-methylpiperidin-1-yl)-1,4-dioxobutan-2-yl)cyclobutanecarboxamide], the IC50 is 2.4 µM.
